According to patent EP2776398B1, “SUBSTITUTED PYRAZOLYL-BASED UREA DERIVATIVES AS VANILLOID RECEPTOR LIGANDS” (Medifron DBT Inc., priority 2011, dated 2013):

The molecules below were run against T1, vanilloid receptor 1 (VR1/TRPV1 receptor) (Homo sapiens, UniProt Q8NER1) (assay: Functional testing on vanilloid receptor 1: FLIPR Ca2+ influx assay against capsaicin (Cap) in transfected CHO K1 cells (pharmacological method II)). Settings: @ 1µM; human VR1 in CHO K1 cells; capsaicin; relative to maximum inhibition with 10 µM capsazepine; read-out: inhibition (as a percentage), printed in column (f) Ki (human being) [nM] Cap.
T1 construct: expressed in transfected cells; host or cells: CHO K1 cells (ECACC), stably transfected
Assay type: cell-based
Set-up: key to (f) Ki (human being) [nM] Cap: agonist classification: AG = agonist
Description: […]

T1 sequence (Q8NER1 whole entry): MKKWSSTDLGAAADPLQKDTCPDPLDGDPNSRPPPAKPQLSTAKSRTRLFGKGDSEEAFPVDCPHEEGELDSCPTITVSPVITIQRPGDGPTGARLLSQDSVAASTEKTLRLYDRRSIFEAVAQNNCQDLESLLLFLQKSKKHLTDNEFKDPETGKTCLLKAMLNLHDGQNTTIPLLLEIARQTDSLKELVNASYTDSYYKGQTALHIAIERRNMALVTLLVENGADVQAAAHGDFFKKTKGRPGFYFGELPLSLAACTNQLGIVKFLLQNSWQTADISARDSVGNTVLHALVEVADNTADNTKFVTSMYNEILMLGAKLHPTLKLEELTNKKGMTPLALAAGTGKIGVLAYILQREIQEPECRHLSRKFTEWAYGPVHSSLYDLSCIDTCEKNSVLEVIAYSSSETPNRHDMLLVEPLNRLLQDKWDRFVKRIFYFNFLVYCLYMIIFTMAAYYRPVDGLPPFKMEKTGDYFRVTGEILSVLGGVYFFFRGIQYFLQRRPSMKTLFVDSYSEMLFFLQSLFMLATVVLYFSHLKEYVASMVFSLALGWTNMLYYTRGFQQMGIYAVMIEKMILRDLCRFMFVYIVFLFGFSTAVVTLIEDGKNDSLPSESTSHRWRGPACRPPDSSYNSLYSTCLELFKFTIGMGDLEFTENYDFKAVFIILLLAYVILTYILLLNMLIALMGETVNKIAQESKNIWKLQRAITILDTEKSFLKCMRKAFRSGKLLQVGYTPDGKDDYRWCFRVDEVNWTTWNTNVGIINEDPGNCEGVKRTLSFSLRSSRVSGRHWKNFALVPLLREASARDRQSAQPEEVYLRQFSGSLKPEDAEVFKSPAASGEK

Row | inhibition at 1 µM [%] | SMILES
1 | 33 | CC(C(=O)NCc1cc(C(C)(C)C)nn1-c1ccc(F)cc1)c1ccc(COCCO)c(F)c1 (stereo not shown) [A124, N-[[5-tert-Butyl-2-(4-fluorophenyl)-2H-pyrazol-3-yl]-methyl]-2-[3-fluoro-4-(2-hydroxy-ethoxy-methyl)-phenyl]-propionamide]

Same assay, conditions: human VR1 in CHO K1 cells; AG printed instead of a Ki

Row | (f) Ki (human being) [nM] Cap: agonist classification | SMILES
2 | AG | CC(O)c1ccc(C(C)C(=O)NCc2cc(C(C)(C)C)nn2-c2cccc(Cl)c2)cc1F (stereo not shown) [A98, N-[[5-tert-Butyl-2-(3-chlorophenyl)-2H-pyrazol-3-yl]-methyl]-2-[3-fluoro-4-(1-hydroxy-ethyl)-phenyl]-propionamide]

Same assay, conditions: read-out: (f) Ki (human being) [nM] Cap

Row | SMILES | Ki [nM]
3 | COc1ccc(-n2nc(C(F)(F)F)cc2CNC(=O)Nc2ccc(CO)c(F)c2)cc1F [A95, 1-[3-Fluoro-4-(hydroxymethyl)-phenyl]-3-[[2-(3-fluoro-4-methoxy-phenyl)-5-(trifluoromethyl)-2H-pyrazol-3-yl]-methyl]-urea] | 13
4 | CC(C)(C)c1cc(CNC(=O)Nc2ccc(CO)c(Cl)c2)n(-c2cccc(Cl)c2)n1 [A96, 1-[[5-tert-Butyl-2-(3-chlorophenyl)-2H-pyrazol-3-yl]-methyl]-3-[3-chloro-4-(hydroxymethyl)-phenyl]-urea] | 2
5 | O=C(NCc1cc(C(F)(F)F)nn1-c1cccc(Cl)c1)Nc1ccc(CO)c(Cl)c1 [A97, 1-[3-Chloro-4-(hydroxymethyl)-phenyl]-3-[[2-(3-chlorophenyl)-5-(trifluoromethyl)-2H-pyrazol-3-yl]-methyl]-urea] | 11
6 | CC(O)c1ccc(C(C)C(=O)NCc2cc(C(F)(F)F)nn2-c2cccc(Cl)c2)cc1F (stereo not shown) [A99, N-[[2-(3-Chlorophenyl)-5-(trifluoromethyl)-2H-pyrazol-3-yl]-methyl]-2-[3-fluoro-4-(1-hydroxy-ethyl)-phenyl]-propionamide] | 6
7 | CC(C(=O)NCc1cc(C(C)(C)C)nn1-c1cccc(Cl)c1)c1ccc(C2(O)CC2)c(F)c1 (stereo not shown) [A100, N-[[5-tert-Butyl-2-(3-chlorophenyl)-2H-pyrazol-3-yl]-methyl]-2-[3-fluoro-4-(1-hydroxy-cyclopropyl)-phenyl]-propionamide] | 0.7
8 | CC(C(=O)NCc1cc(C(F)(F)F)nn1-c1cccc(Cl)c1)c1ccc(C2(O)CC2)c(F)c1 (stereo not shown) [A101, N-[[2-(3-Chlorophenyl)-5-(trifluoromethyl)-2H-pyrazol-3-yl]-methyl]-2-[3-fluoro-4-(1-hydroxy-cyclopropyl)-phenyl]-propionamide] | 4
9 | CC(C(=O)NCc1cc(C(F)(F)F)nn1-c1cccc(F)c1)c1ccc(C2(O)CC2)c(F)c1 (stereo not shown) [A102, 2-[3-Fluoro-4-(1-hydroxy-cyclopropyl)-phenyl]-N-[[2-(3-fluorophenyl)-5-(trifluoromethyl)-2H-pyrazol-3-yl]-methyl]-propionamide] | 15
10 | COc1cccc(-n2nc(C(F)(F)F)cc2CNC(=O)C(C)c2ccc(C3(O)CC3)c(F)c2)c1 (stereo not shown) [A103, 2-[3-Fluoro-4-(1-hydroxy-cyclopropyl)-phenyl]-N-[[2-(3-methoxyphenyl)-5-(trifluoromethyl)-2H-pyrazol-3-yl]-methyl]-propionamide] | 22
11 | CC(C(=O)NCc1cc(C(F)(F)F)nn1-c1ccc(F)c(F)c1)c1ccc(C2(O)CC2)c(F)c1 (stereo not shown) [A104, N-[[2-(3,4-Difluoro-phenyl)-5-(trifluoromethyl)-2H-pyrazol-3-yl]-methyl]-2-[3-fluoro-4-(1-hydroxy-cyclopropyl)-phenyl]-propionamide] | 12
12 | CC(C)(C)c1cc(CNC(=O)Nc2ccc(C3(O)CC3)c(F)c2)n(-c2cccc(Cl)c2)n1 [A105, 1-[[5-tert-Butyl-2-(3-chlorophenyl)-2H-pyrazol-3-yl]-methyl]-3-[3-fluoro-4-(1-hydroxy-cyclopropyl)-phenyl]-urea] | 19
13 | O=C(NCc1cc(C(F)(F)F)nn1-c1cccc(Cl)c1)Nc1ccc(C2(O)CC2)c(F)c1 [A106, 1-[[2-(3-Chlorophenyl)-5-(trifluoromethyl)-2H-pyrazol-3-yl]-methyl]-3-[3-fluoro-4-(1-hydroxy-cyclopropyl)-phenyl]-urea] | 31
14 | CC(C)(C)c1cc(CNC(=O)Nc2ccc(C3(O)COC3)cc2)n(-c2cccc(Cl)c2)n1 [A107, 1-[[5-tert-Butyl-2-(3-chlorophenyl)-2H-pyrazol-3-yl]-methyl]-3-[4-(3-hydroxy-oxetan-3-yl)-phenyl]-urea] | 45
15 | O=C(NCc1cc(C(F)(F)F)nn1-c1cccc(Cl)c1)Nc1ccc(C2(O)COC2)cc1 [A108, 1-[[2-(3-Chlorophenyl)-5-(trifluoromethyl)-2H-pyrazol-3-yl]-methyl]-3-[4-(3-hydroxy-oxetan-3-yl)-phenyl]-urea] | 48
16 | CC(C)(C)c1cc(CNC(=O)Nc2ccc(C3(O)COC3)c(F)c2)n(-c2cccc(Cl)c2)n1 [A109, 1-[[5-tert-Butyl-2-(3-chlorophenyl)-2H-pyrazol-3-yl]-methyl]-3-[3-fluoro-4-(3-hydroxy-oxetan-3-yl)-phenyl]-urea] | 43
17 | COCCOCc1ccc(C(C)C(=O)NCc2cc(C(F)(F)F)nn2-c2cccc(Cl)c2)cc1F (stereo not shown) [A111, N-[[2-(3-Chlorophenyl)-5-(trifluoromethyl)-2H-pyrazol-3-yl]-methyl]-2-[3-fluoro-4-(2-methoxy-ethoxy-methyl)-phenyl]-propionamide] | 38
18 | COCCOCc1ccc(C(C)C(=O)NCc2cc(C(F)(F)F)nn2-c2ccc(F)c(Cl)c2)cc1F (stereo not shown) [A112, N-[[2-(3-Chloro-4-fluoro-phenyl)-5-(trifluoromethyl)-2H-pyrazol-3-yl]-methyl]-2-[3-fluoro-4-(2-methoxy-ethoxy-methyl)-phenyl]-propionamide] | 79
19 | O=C(Cc1ccc(COCCO)c(F)c1)NCc1cc(C(F)(F)F)nn1-c1cccc(Cl)c1 [A113, N-[[2-(3-Chlorophenyl)-5-(trifluoromethyl)-2H-pyrazol-3-yl]-methyl]-2-[3-fluoro-4-(2-hydroxy-ethoxy-methyl)-phenyl]-acetamide] | 63
20 | COc1cccc(-n2nc(C(F)(F)F)cc2CNC(=O)C(C)c2ccc(COCCO)c(F)c2)c1 (stereo not shown) [A114, 2-[3-Fluoro-4-(2-hydroxy-ethoxy-methyl)-phenyl]-N-[[2-(3-methoxyphenyl)-5-(trifluoromethyl)-2H-pyrazol-3-yl]-methyl]-propionamide] | 46

The remaining lines, values ahead:

Row | Ki [nM] | SMILES
21 | 3 | CC(C)c1cccc(-n2nc(C(F)(F)F)cc2CNC(=O)C(C)c2ccc(COCCO)c(F)c2)c1 (stereo not shown) [A115, 2-[3-Fluoro-4-(2-hydroxy-ethoxy-methyl)-phenyl]-N-[[2-(3-isopropyl-phenyl)-5-(trifluoromethyl)-2H-pyrazol-3-yl]-methyl]-propionamide]
22 | 18 | CC(C(=O)NCc1cc(C(C)(C)C)nn1-c1cccc(F)c1)c1ccc(COCCO)c(F)c1 (stereo not shown) [A116, N-[[5-tert-Butyl-2-(3-fluorophenyl)-2H-pyrazol-3-yl]-methyl]-2-[3-fluoro-4-(2-hydroxy-ethoxy-methyl)-phenyl]-propionamide]
23 | 9 | CC(C(=O)NCc1cc(C(C)(C)C)nn1-c1cccc(Cl)c1)c1ccc(COCCO)c(F)c1 (stereo not shown) [A117, N-[[5-tert-Butyl-2-(3-chlorophenyl)-2H-pyrazol-3-yl]-methyl]-2-[3-fluoro-4-(2-hydroxy-ethoxy-methyl)-phenyl]-propionamide]
24 | 27 | CC(C(=O)NCc1cc(C(F)(F)F)nn1-c1cccc(Cl)c1)c1ccc(COCCO)c(F)c1 (stereo not shown) [A118, N-[[2-(3-Chlorophenyl)-5-(trifluoromethyl)-2H-pyrazol-3-yl]-methyl]-2-[3-fluoro-4-(2-hydroxy-ethoxy-methyl)-phenyl]-propionamide]
25 | 57 | C[C@H](C(=O)NCc1cc(C(F)(F)F)nn1-c1cccc(Cl)c1)c1ccc(COCCO)c(F)c1 [A119, (2S)-N-[[2-(3-Chlorophenyl)-5-(trifluoromethyl)-2H-pyrazol-3-yl]-methyl]-2-[3-fluoro-4-(2-hydroxy-ethoxy-methyl)-phenyl]-propionamide]
26 | 5 | C[C@@H](C(=O)NCc1cc(C(F)(F)F)nn1-c1cccc(Cl)c1)c1ccc(COCCO)c(F)c1 [A120, (2R)-N-[[2-(3-Chlorophenyl)-5-(trifluoromethyl)-2H-pyrazol-3-yl]-methyl]-2-[3-fluoro-4-(2-hydroxy-ethoxy-methyl)-phenyl]-propionamide]
27 | 20 | CC(C(=O)NCc1cc(C(F)(F)F)nn1-c1ccc(F)c(Cl)c1)c1ccc(COCCO)c(F)c1 (stereo not shown) [A121, N-[[2-(3-Chloro-4-fluoro-phenyl)-5-(trifluoromethyl)-2H-pyrazol-3-yl]-methyl]-2-[3-fluoro-4-(2-hydroxy-ethoxy-methyl)-phenyl]-propionamide]
28 | 45 | CC(C(=O)NCc1cc(C(F)(F)F)nn1-c1cccc(F)c1)c1ccc(COCCO)c(F)c1 (stereo not shown) [A122, 2-[3-Fluoro-4-(2-hydroxy-ethoxy-methyl)-phenyl]-N-[[2-(3-fluorophenyl)-5-(trifluoromethyl)-2H-pyrazol-3-yl]-methyl]-propionamide]
29 | 24 | Cc1cccc(-n2nc(C(F)(F)F)cc2CNC(=O)C(C)c2ccc(COCCO)c(F)c2)c1 (stereo not shown) [A123, 2-[3-Fluoro-4-(2-hydroxy-ethoxy-methyl)-phenyl]-N-[[2-(m-tolyl)-5-(trifluoromethyl)-2H-pyrazol-3-yl]-methyl]-propionamide]
30 | 15 | CC(C(=O)NCc1cc(C(C)(C)C)nn1-c1cccc(OC(F)(F)F)c1)c1ccc(COCCO)c(F)c1 (stereo not shown) [A125, N-[[5-tert-Butyl-2-[3-(trifluoromethyloxy)-phenyl]-2H-pyrazol-3-yl]-methyl]-2-[3-fluoro-4-(2-hydroxy-ethoxy-methyl)-phenyl]-propionamide]
31 | 79 | CC(C(=O)NCc1cc(C(F)(F)F)nn1-c1cc(F)cc(F)c1)c1ccc(COCCO)c(F)c1 (stereo not shown) [A126, N-[[2-(3,5-Difluoro-phenyl)-5-(trifluoromethyl)-2H-pyrazol-3-yl]-methyl]-2-[3-fluoro-4-(2-hydroxy-ethoxy-methyl)-phenyl]-propionamide]
